In PubChem BioAssay AID1963853 (Molecular Pharmacology Branch, DTP, NCI, 2024):

System: 266295-075-R-J1-PDC spheroid viability
Test: Anticancer human tumor 266295-075-R-J1-PDC patient-derived head and neck squamous carcinoma cell line growth inhibition [POLQ]
Details: spheroids with HUVEC and MSC; for IC50: curve of first compound; for viability, T/C: stronger effect = lower value
How it was run: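 Growth inhibition in 3D: complex spheroids (tumor PDC, HUVEC, MSC) treated with POLQ inhibitor combinations; where Cmax unknown, highest tested concentration 10 microM, except SN-38 at 1 microM.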

[1] = second compound 0.0316 µM, first compound 0.0316 µM
[2] = second compound 0.0316 µM, first compound 0.1 µM
[3] = second compound 0.0316 µM, first compound 0.316 µM
[4] = second compound 0.0316 µM, first compound 1 µM
[5] = second compound 0.1 µM, first compound 0.0316 µM
[6] = second compound 0.1 µM, first compound 0.1 µM
[7] = second compound 0.1 µM, first compound 0.316 µM
[8] = second compound 0.1 µM, first compound 1 µM
[9] = second compound 0.316 µM, first compound 0.0316 µM
[10] = second compound 0.316 µM, first compound 0.1 µM
[11] = second compound 0.316 µM, first compound 0.316 µM
[12] = second compound 0.316 µM, first compound 1 µM
[13] = second compound 1 µM, first compound 0.0316 µM
[14] = second compound 1 µM, first compound 0.1 µM
[15] = second compound 1 µM, first compound 0.316 µM
[16] = second compound 1 µM, first compound 1 µM
[17] = second compound 3.16 µM, first compound 0.0316 µM
[18] = second compound 3.16 µM, first compound 0.1 µM
[19] = second compound 3.16 µM, first compound 0.316 µM
[20] = second compound 3.16 µM, first compound 1 µM
[21] = second compound 10 µM, first compound 0.0316 µM
[22] = second compound 10 µM, first compound 0.1 µM
[23] = second compound 10 µM, first compound 0.316 µM
[24] = second compound 10 µM, first compound 1 µM
[25] = second compound 0.0316 µM, first compound 3.16 µM
[26] = second compound 0.0316 µM, first compound 10 µM
[27] = second compound 0.1 µM, first compound 3.16 µM
[28] = second compound 0.1 µM, first compound 10 µM
[29] = second compound 0.316 µM, first compound 3.16 µM
[30] = second compound 0.316 µM, first compound 10 µM
[31] = second compound 1 µM, first compound 3.16 µM
[32] = second compound 1 µM, first compound 10 µM
[33] = second compound 3.16 µM, first compound 3.16 µM
[34] = second compound 3.16 µM, first compound 10 µM
[35] = second compound 10 µM, first compound 3.16 µM
[36] = second compound 10 µM, first compound 10 µM
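Note: spheroids exposed to compounds for seven days before readout.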

CCc1c2c(nc3ccc(O)cc13)-c1cc3c(c(=O)n1C2)COC(=O)[C@]3(O)CC + Cc1cccc(N(C)C(=O)C2C(O)CCN2c2nc(C)cc(C(F)(F)F)c2C#N)c1
IC50 (second compound 0.0316 µM): > 1 µM
IC50 (second compound 0.1 µM): > 1 µM
IC50 (second compound 0.316 µM): > 1 µM
IC50 (second compound 1 µM): > 1 µM
IC50 (second compound 3.16 µM): > 1 µM
IC50 (second compound 10 µM): > 1 µM
viability, T/C (second compound 0.0316 µM, first compound 0.00316 µM): 90.2%
viability, T/C (second compound 0.0316 µM, first compound 0.01 µM): 81.4%
viability, T/C [1]: 80.4%
viability, T/C [2]: 85.8%
viability, T/C [3]: 113%
viability, T/C [4]: 76.7%
viability, T/C (second compound 0.1 µM, first compound 0.00316 µM): 90.3%
viability, T/C (second compound 0.1 µM, first compound 0.01 µM): 78.5%
viability, T/C [5]: 90.4%
viability, T/C [6]: 81.9%
viability, T/C [7]: 110%
viability, T/C [8]: 72.9%
viability, T/C (second compound 0.316 µM, first compound 0.00316 µM): 85.8%
viability, T/C (second compound 0.316 µM, first compound 0.01 µM): 84.1%
viability, T/C [9]: 87.2%
viability, T/C [10]: 87%
viability, T/C [11]: 92.5%
viability, T/C [12]: 75.1%
viability, T/C (second compound 1 µM, first compound 0.00316 µM): 91.5%
viability, T/C (second compound 1 µM, first compound 0.01 µM): 86.7%
viability, T/C [13]: 77%
viability, T/C [14]: 84.3%
viability, T/C [15]: 92.7%
viability, T/C [16]: 75.5%
viability, T/C (second compound 3.16 µM, first compound 0.00316 µM): 78.5%
viability, T/C (second compound 3.16 µM, first compound 0.01 µM): 74.1%
viability, T/C [17]: 79.9%
viability, T/C [18]: 89%
viability, T/C [19]: 107%
viability, T/C [20]: 75.2%
viability, T/C (second compound 10 µM, first compound 0.00316 µM): 92.8%
viability, T/C (second compound 10 µM, first compound 0.01 µM): 92%
viability, T/C [21]: 82.9%
viability, T/C [22]: 85.7%
viability, T/C [23]: 87.8%
viability, T/C [24]: 55.6%

COc1cc2cc(C(=O)CCC(=O)O)sc2cc1OC + Nc1ccc(C#CCN(C(=O)Cc2ncc(C(F)(F)F)cc2C(F)(F)F)c2ccc(F)cc2)nn1
IC50 (second compound 0.0316 µM): > 10 µM
IC50 (second compound 0.1 µM): > 10 µM
IC50 (second compound 0.316 µM): > 10 µM
IC50 (second compound 1 µM): > 10 µM
IC50 (second compound 3.16 µM): > 10 µM
IC50 (second compound 10 µM): > 10 µM
viability, T/C [1]: 119%
viability, T/C [2]: 81%
viability, T/C [3]: 82.3%
viability, T/C [4]: 89.5%
viability, T/C [25]: 94.8%
viability, T/C [26]: 99.7%
viability, T/C [5]: 101%
viability, T/C [6]: 87.7%
viability, T/C [7]: 84.3%
viability, T/C [8]: 127%
viability, T/C [27]: 82.2%
viability, T/C [28]: 80.6%
viability, T/C [9]: 109%
viability, T/C [10]: 112%
viability, T/C [11]: 104%
viability, T/C [12]: 79.8%
viability, T/C [29]: 104%
viability, T/C [30]: 79.1%
viability, T/C [13]: 86.4%
viability, T/C [14]: 106%
viability, T/C [15]: 102%
viability, T/C [16]: 83%
viability, T/C [31]: 117%
viability, T/C [32]: 90.9%
viability, T/C [17]: 105%
viability, T/C [18]: 106%
viability, T/C [19]: 98.9%
viability, T/C [20]: 81.8%
viability, T/C [33]: 85.7%
viability, T/C [34]: 104%
viability, T/C [21]: 82.5%
viability, T/C [22]: 83.7%
viability, T/C [23]: 86.4%
viability, T/C [24]: 102%
viability, T/C [35]: 87.5%
viability, T/C [36]: 88%

CCCS(=O)(=O)Nc1ccc(F)c(C(=O)c2c[nH]c3ncc(-c4ccc(Cl)cc4)cc23)c1F + COC1C(OC(N)=O)C(O)C(Oc2ccc3c(O)c(NC(=O)c4ccc(O)c(CC=C(C)C)c4)c(=O)oc3c2C)OC1(C)C
IC50 (second compound 0.0316 µM): > 10 µM
IC50 (second compound 0.1 µM): > 10 µM
IC50 (second compound 0.316 µM): > 10 µM
IC50 (second compound 1 µM): > 10 µM
IC50 (second compound 3.16 µM): > 10 µM
IC50 (second compound 10 µM): > 10 µM
viability, T/C [1]: 99%
viability, T/C [2]: 116%
viability, T/C [3]: 107%
viability, T/C [4]: 115%
viability, T/C [25]: 169%
viability, T/C [26]: 172%
viability, T/C [5]: 101%
viability, T/C [6]: 121%
viability, T/C [7]: 105%
viability, T/C [8]: 112%
viability, T/C [27]: 157%
viability, T/C [28]: 222%
viability, T/C [9]: 116%
viability, T/C [10]: 102%
viability, T/C [11]: 102%
viability, T/C [12]: 128%
viability, T/C [29]: 155%
viability, T/C [30]: 195%
viability, T/C [13]: 117%
viability, T/C [14]: 102%
viability, T/C [15]: 102%
viability, T/C [16]: 113%
viability, T/C [31]: 143%
viability, T/C [32]: 172%
viability, T/C [17]: 98.7%
viability, T/C [18]: 87.5%
viability, T/C [19]: 140%
viability, T/C [20]: 130%
viability, T/C [33]: 139%
viability, T/C [34]: 178%
viability, T/C [21]: 112%
viability, T/C [22]: 95.5%
viability, T/C [23]: 111%
viability, T/C [24]: 153%
viability, T/C [35]: 144%
viability, T/C [36]: 166%
